According to the NIST ThermoML archive (doi:10.1021/je200682t):
Numbers after ± are expanded uncertainties.

Test: relative permittivity at zero frequency (dimensionless)
Settings: 101.33 kPa, Liquid, Parallel plate capacitor

| Structure (SMILES) | relative permittivity at zero frequency (245.65 K) | relative permittivity at zero frequency (248.15 K) | relative permittivity at zero frequency (250.65 K) | relative permittivity at zero frequency (253.15 K) | relative permittivity at zero frequency (255.65 K) | relative permittivity at zero frequency (258.15 K) | relative permittivity at zero frequency (260.65 K) | relative permittivity at zero frequency (263.15 K) | relative permittivity at zero frequency (265.65 K) | relative permittivity at zero frequency (268.15 K) | relative permittivity at zero frequency (270.65 K) | relative permittivity at zero frequency (273.15 K) | relative permittivity at zero frequency (275.65 K) | relative permittivity at zero frequency (278.15 K) | relative permittivity at zero frequency (298.15 K) | relative permittivity at zero frequency (303.15 K) | relative permittivity at zero frequency (305.65 K) | relative permittivity at zero frequency (308.15 K) | relative permittivity at zero frequency (310.65 K) | relative permittivity at zero frequency (313.15 K) | further results |
| --- | --- | --- | --- | --- | --- | --- | --- | --- | --- | --- | --- | --- | --- | --- | --- | --- | --- | --- | --- | --- | --- |
| O=C1CCC1 [cyclobutanone] | 17.81 ± 0.02 | 17.66 ± 0.02 | 17.51 ± 0.02 | 17.37 ± 0.02 | 17.22 ± 0.02 | 17.07 ± 0.02 | 16.93 ± 0.02 | 16.79 ± 0.02 | 16.65 ± 0.02 | 16.51 ± 0.02 | 16.37 ± 0.02 | 16.24 ± 0.02 | 16.11 ± 0.02 | 15.98 ± 0.02 | 14.96 ± 0.02 | 14.72 ± 0.02 | 14.6 ± 0.02 | 14.48 ± 0.02 | 14.37 ± 0.02 | 14.25 ± 0.02 | relative permittivity at zero frequency (243.15 K): 17.96 ± 0.02; relative permittivity at zero frequency (280.65 K): 15.85 ± 0.02; relative permittivity at zero frequency (283.15 K): 15.72 ± 0.02; relative permittivity at zero frequency (285.65 K): 15.58 ± 0.02; relative permittivity at zero frequency (288.15 K): 15.46 ± 0.02; relative permittivity at zero frequency (290.65 K): 15.33 ± 0.02; relative permittivity at zero frequency (293.15 K): 15.2 ± 0.02; relative permittivity at zero frequency (295.65 K): 15.08 ± 0.02; relative permittivity at zero frequency (300.65 K): 14.84 ± 0.02 |
| O=C1CCCCCC1 [cycloheptanone] | 15.35 ± 0.02 | 15.22 ± 0.02 | 15.09 ± 0.02 | 14.97 ± 0.02 | 14.85 ± 0.02 | 14.72 ± 0.02 | 14.57 ± 0.02 | 14.47 ± 0.02 | 14.36 ± 0.02 | 14.25 ± 0.02 | 14.14 ± 0.02 | 14.03 ± 0.02 | 13.91 ± 0.02 | 13.8 ± 0.02 | 12.92 ± 0.02 | 12.72 ± 0.02 | 12.62 ± 0.02 | 12.51 ± 0.02 | 12.41 ± 0.02 | 12.32 ± 0.02 | relative permittivity at zero frequency (280.65 K): 13.69 ± 0.02; relative permittivity at zero frequency (283.15 K): 13.58 ± 0.02; relative permittivity at zero frequency (285.65 K): 13.46 ± 0.02; relative permittivity at zero frequency (288.15 K): 13.35 ± 0.02; relative permittivity at zero frequency (290.65 K): 13.25 ± 0.02; relative permittivity at zero frequency (293.15 K): 13.14 ± 0.02; relative permittivity at zero frequency (295.65 K): 13.03 ± 0.02; relative permittivity at zero frequency (300.65 K): 12.82 ± 0.02 |
| O=C1CCCCC1 [cyclohexanone] | 19.54 ± 0.02 | 19.34 ± 0.02 | 19.13 ± 0.02 | 18.93 ± 0.02 | 18.73 ± 0.02 | 18.54 ± 0.02 | 18.34 ± 0.02 | 18.15 ± 0.02 | 17.96 ± 0.02 | 17.78 ± 0.02 | 17.6 ± 0.02 | 17.42 ± 0.02 | 17.24 ± 0.02 | 17.07 ± 0.02 | 15.77 ± 0.02 | 15.46 ± 0.02 | 15.32 ± 0.02 | 15.17 ± 0.02 | 15.03 ± 0.02 | 14.89 ± 0.02 | relative permittivity at zero frequency (243.15 K): 19.75 ± 0.02; relative permittivity at zero frequency (280.65 K): 16.9 ± 0.02; relative permittivity at zero frequency (283.15 K): 16.73 ± 0.02; relative permittivity at zero frequency (285.65 K): 16.56 ± 0.02; relative permittivity at zero frequency (288.15 K): 16.4 ± 0.02; relative permittivity at zero frequency (290.65 K): 16.24 ± 0.02; relative permittivity at zero frequency (293.15 K): 16.08 ± 0.02; relative permittivity at zero frequency (295.65 K): 15.92 ± 0.02; relative permittivity at zero frequency (300.65 K): 15.62 ± 0.02 |
| O=C1CCCCCCC1 [cyclooctanone] |  |  |  |  |  |  |  |  |  |  |  |  |  |  | 14.54 ± 0.04 | 14.22 ± 0.04 | 14.05 ± 0.04 | 13.89 ± 0.04 | 13.74 ± 0.04 | 13.57 ± 0.04 | relative permittivity at zero frequency (315.65 K): 13.42 ± 0.04; relative permittivity at zero frequency (318.15 K): 13.27 ± 0.04; relative permittivity at zero frequency (320.65 K): 13.14 ± 0.04; relative permittivity at zero frequency (323.15 K): 12.99 ± 0.04; relative permittivity at zero frequency (325.65 K): 12.85 ± 0.04; relative permittivity at zero frequency (328.15 K): 12.71 ± 0.04; relative permittivity at zero frequency (330.65 K): 12.58 ± 0.04; relative permittivity at zero frequency (333.15 K): 12.44 ± 0.04; relative permittivity at zero frequency (335.65 K): 12.3 ± 0.04; relative permittivity at zero frequency (338.15 K): 12.17 ± 0.04; relative permittivity at zero frequency (340.65 K): 12.04 ± 0.04; relative permittivity at zero frequency (343.15 K): 11.9 ± 0.04 |
| O=C1CCCC1 [cyclopentanone] | 15.56 ± 0.04 | 15.46 ± 0.04 | 15.36 ± 0.04 | 15.26 ± 0.04 | 15.15 ± 0.04 | 15.05 ± 0.04 | 14.95 ± 0.04 | 14.85 ± 0.04 | 14.75 ± 0.04 | 14.65 ± 0.04 | 14.55 ± 0.04 | 14.45 ± 0.04 | 14.35 ± 0.04 | 14.25 ± 0.04 | 13.49 ± 0.04 | 13.3 ± 0.04 | 13.22 ± 0.04 | 13.13 ± 0.04 | 13.04 ± 0.04 | 12.95 ± 0.04 | relative permittivity at zero frequency (243.15 K): 15.66 ± 0.04; relative permittivity at zero frequency (280.65 K): 14.15 ± 0.04; relative permittivity at zero frequency (283.15 K): 14.06 ± 0.04; relative permittivity at zero frequency (285.65 K): 13.96 ± 0.04; relative permittivity at zero frequency (288.15 K): 13.86 ± 0.04; relative permittivity at zero frequency (290.65 K): 13.77 ± 0.04; relative permittivity at zero frequency (293.15 K): 13.67 ± 0.04; relative permittivity at zero frequency (295.65 K): 13.58 ± 0.04; relative permittivity at zero frequency (300.65 K): 13.39 ± 0.04 |
